The target in the experiment is T1, porcine trehalase (Sus scrofa, UniProt I3LIR5).
T1 sequence (I3LIR5 24-556): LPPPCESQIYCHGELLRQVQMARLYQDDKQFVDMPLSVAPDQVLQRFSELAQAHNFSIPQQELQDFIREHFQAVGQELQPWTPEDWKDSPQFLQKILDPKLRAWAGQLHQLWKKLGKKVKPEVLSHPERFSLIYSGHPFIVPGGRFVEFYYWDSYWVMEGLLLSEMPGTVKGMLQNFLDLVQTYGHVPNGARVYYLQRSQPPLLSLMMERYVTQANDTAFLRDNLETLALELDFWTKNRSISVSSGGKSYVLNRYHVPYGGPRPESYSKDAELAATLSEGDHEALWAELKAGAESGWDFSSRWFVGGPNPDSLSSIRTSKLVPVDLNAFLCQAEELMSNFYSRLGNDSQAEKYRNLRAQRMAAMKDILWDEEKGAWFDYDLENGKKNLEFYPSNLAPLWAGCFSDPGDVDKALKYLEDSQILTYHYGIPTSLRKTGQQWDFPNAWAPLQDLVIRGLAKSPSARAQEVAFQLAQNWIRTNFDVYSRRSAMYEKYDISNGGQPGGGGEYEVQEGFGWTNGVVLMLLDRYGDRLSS
Briefly: UV spectrophotometric coupled assay of trehalose hydrolysis. Type of experiment: biochemical.

The text below walks through data of article PMC6499371 (Chemical communications (Cambridge, England), 2019).

As for `OC[C@H]1O[C@H](O[C@H]2O[C@H](CO)[C@@H](O)[C@H](O)[C@H]2O)[C@@H](O)[C@@H](O)[C@@H]1O` [compound 2, mannotrehalose], 1130 µM corresponded to half-maximal inhibition (IC50).

For orientation: IC50 means the concentration that gives 50% inhibition.
